Laboratory results reported in ChEMBL document CHEMBL1144662, “Requirement of beta-alanine components in sequence-specific DNA alkylation by pyrrole-imidazole conjugates with seven-base pair recognition” (Bioorg Med Chem, 2008).
Activity calls are given as the source filed them. No cut-off for these calls is given here.

Experiments:
[1] = Alkylation of plasmid DNA at 5'-ACAACCA-3' site in 5'-Texas Red labeled 202-bp DNA fragment after 15 hrs
[2] = Alkylation of plasmid DNA at 5'-ACTACCA-3' site in 5'-Texas Red labeled 202-bp DNA fragment after 15 hrs
[3] = Alkylation of plasmid DNA at 5'-AGCACCA-3' site in 5'-Texas Red labeled 202-bp DNA fragment after 15 hrs
[4] = Alkylation of plasmid DNA at 5'-AGCTCCA-3' site in 5'-Texas Red labeled 202-bp DNA fragment after 15 hrs
[5] = Alkylation of plasmid DNA in 5'-Texas Red labeled 202-bp DNA fragment upto 5 uM after 15 hrs

Activity [1] | Activity [2] | Activity [3] | Activity [4] | Activity [5] | SMILES
Active | Active |  |  |  | CC(=O)Nc1cn(C)c(C(=O)Nc2cn(C)c(C(=O)Nc3cc(C(=O)NCCC(=O)Nc4cn(C)c(C(=O)NCCCC(=O)Nc5cc(C(=O)NCCC(=O)Nc6cc(C(=O)Nc7ccc8[nH]c(C(=O)N9CC(CCl)c%10c9cc(O)c9ccccc%109)cc8c7)n(C)c6)n(C)c5)n4)n(C)c3)n2)n1 (stereo unspecified)
 |  | Active | Active |  | CC(=O)Nc1cn(C)c(C(=O)Nc2cn(C)c(C(=O)NCCC(=O)Nc3cn(C)c(C(=O)Nc4cc(C(=O)NCCCC(=O)Nc5cn(C)c(C(=O)Nc6cc(C(=O)NCCC(=O)Nc7ccc8[nH]c(C(=O)N9CC(CCl)c%10c9cc(O)c9ccccc%109)cc8c7)n(C)c6)n5)n(C)c4)n3)n2)n1 (stereo unspecified)

Second part, the compound before the results:

SMILES | Activity [1] | Activity [2] | Activity [3] | Activity [4] | Activity [5]
CC(=O)Nc1cn(C)c(C(=O)Nc2cn(C)c(C(=O)Nc3cc(C(=O)Nc4cc(C(=O)Nc5cn(C)c(C(=O)NCCCC(=O)Nc6cc(C(=O)Nc7cc(C(=O)Nc8cc(C(=O)Nc9ccc%10[nH]c(C(=O)N%11CC(CCl)c%12c%11cc(O)c%11ccccc%12%11)cc%10c9)n(C)c8)n(C)c7)n(C)c6)n5)n(C)c4)n(C)c3)n2)n1 (stereo unspecified) | Active | Active |  |  | 
CC(=O)Nc1cn(C)c(C(=O)Nc2cn(C)c(C(=O)NCCC(=O)Nc3cn(C)c(C(=O)Nc4cc(C(=O)NCCCC(=O)Nc5cn(C)c(C(=O)Nc6cc(C(=O)Nc7cc(C(=O)Nc8ccc9[nH]c(C(=O)N%10CC(CCl)c%11c%10cc(O)c%10ccccc%11%10)cc9c8)n(C)c7)n(C)c6)n5)n(C)c4)n3)n2)n1 (stereo unspecified) |  |  | Active | Active | 
CC(=O)Nc1cn(C)c(C(=O)Nc2cn(C)c(C(=O)Nc3cc(C(=O)NCCC(=O)Nc4cn(C)c(C(=O)NCCCC(=O)Nc5cc(C(=O)Nc6cc(C(=O)Nc7cc(C(=O)Nc8ccc9[nH]c(C(=O)N%10CC(CCl)c%11c%10cc(O)c%10ccccc%11%10)cc9c8)n(C)c7)n(C)c6)n(C)c5)n4)n(C)c3)n2)n1 (stereo unspecified) | Active | Active |  |  | 
CC(=O)Nc1cn(C)c(C(=O)Nc2cn(C)c(C(=O)Nc3cc(C(=O)Nc4cn(C)c(C(=O)Nc5cc(C(=O)NCCCC(=O)Nc6cn(C)c(C(=O)Nc7cc(C(=O)NCCC(=O)Nc8ccc9[nH]c(C(=O)N%10CC(CCl)c%11c%10cc(O)c%10ccccc%11%10)cc9c8)n(C)c7)n6)n(C)c5)n4)n(C)c3)n2)n1 (stereo unspecified) |  |  |  |  | inactive
